Literature values in patent US20120101390A1, “Multi-Modal Imaging for Diagnosis of Early Stage Epithelial Cancers” (priority 2010, published 2012).

Molecular target: T1, integrin αvβ3 (Homo sapiens, UniProt P05106+P06756)
T1 construct: integrin αvβ3-positive U87MG xenograft models; endogenous in cells; host or cells: U87MG (tumour xenograft)
Settings: integrin αvβ3-positive U87MG xenograft models

T1 sequence (P06756 31-889 limits assumed): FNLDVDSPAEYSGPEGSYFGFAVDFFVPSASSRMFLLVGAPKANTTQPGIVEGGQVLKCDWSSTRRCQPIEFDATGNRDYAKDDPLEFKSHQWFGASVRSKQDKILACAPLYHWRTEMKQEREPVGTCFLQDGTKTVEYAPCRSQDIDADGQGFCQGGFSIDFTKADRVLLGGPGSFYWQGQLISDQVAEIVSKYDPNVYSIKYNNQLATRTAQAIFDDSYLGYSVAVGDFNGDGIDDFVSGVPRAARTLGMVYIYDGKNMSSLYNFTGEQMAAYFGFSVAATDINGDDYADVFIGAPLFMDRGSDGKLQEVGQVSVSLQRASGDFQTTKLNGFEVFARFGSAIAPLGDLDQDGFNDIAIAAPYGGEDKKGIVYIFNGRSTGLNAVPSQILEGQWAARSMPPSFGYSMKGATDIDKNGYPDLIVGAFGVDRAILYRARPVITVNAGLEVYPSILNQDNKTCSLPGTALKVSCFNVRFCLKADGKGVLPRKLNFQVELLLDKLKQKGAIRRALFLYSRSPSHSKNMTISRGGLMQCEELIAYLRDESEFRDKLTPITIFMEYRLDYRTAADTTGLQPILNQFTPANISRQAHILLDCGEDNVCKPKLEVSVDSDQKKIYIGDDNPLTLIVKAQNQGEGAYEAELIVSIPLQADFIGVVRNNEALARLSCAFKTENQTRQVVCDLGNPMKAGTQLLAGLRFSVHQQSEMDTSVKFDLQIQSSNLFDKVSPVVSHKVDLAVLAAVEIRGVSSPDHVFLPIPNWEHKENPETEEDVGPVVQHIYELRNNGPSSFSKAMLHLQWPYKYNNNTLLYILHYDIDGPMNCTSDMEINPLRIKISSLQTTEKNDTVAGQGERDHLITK
T1 sequence (P06756 891-1048 limits assumed): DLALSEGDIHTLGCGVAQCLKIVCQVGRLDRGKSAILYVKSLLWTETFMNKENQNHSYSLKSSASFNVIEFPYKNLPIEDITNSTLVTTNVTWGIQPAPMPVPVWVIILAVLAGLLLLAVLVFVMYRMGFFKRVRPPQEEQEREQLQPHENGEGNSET
T1 sequence (P05106 27-788): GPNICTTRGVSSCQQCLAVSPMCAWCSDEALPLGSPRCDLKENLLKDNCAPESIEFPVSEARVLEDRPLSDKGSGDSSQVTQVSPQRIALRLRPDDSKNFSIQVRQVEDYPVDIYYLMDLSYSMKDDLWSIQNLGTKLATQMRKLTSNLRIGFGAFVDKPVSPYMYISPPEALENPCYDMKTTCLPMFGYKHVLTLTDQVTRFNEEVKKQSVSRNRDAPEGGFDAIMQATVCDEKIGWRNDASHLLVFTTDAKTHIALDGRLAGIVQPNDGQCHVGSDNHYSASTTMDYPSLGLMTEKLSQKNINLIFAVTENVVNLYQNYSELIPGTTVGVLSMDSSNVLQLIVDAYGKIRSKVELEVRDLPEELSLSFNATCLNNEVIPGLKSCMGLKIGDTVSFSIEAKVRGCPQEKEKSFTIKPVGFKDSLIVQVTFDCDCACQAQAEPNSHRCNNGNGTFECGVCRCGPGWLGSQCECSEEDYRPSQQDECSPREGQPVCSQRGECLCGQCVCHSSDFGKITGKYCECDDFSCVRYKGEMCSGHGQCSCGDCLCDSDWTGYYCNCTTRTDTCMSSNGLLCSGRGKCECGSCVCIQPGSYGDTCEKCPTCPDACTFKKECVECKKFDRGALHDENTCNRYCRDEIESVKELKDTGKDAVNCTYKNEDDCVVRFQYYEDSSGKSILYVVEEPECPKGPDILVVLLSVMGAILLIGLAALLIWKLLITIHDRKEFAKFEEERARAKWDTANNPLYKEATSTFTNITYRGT

binding relative to the monomeric counterpart | Substance
stronger binding | E-[G-G-G-c(RGDfK)]2
stronger binding | E-[c(RGDfK)]2
stronger binding | E-{G-[c(RGDfK)]2}2
